Reference: patent US6521239B1, “Cosmetic composition containing at least one auxin and its use” (Societe L'Oreal S.A., priority 1997, dated 2003)

Test system: reconstructed human epidermis
Test: incorporation of 14C-acetate into total lipids in reconstructed human epidermis (Skinethic)
Format: cell-based
Conditions: for percentage of stimulation (incorporation of 14C-acetate, total lipid synthesis): untreated cells = 100
Method: Study of the effect of β-naphthoxyacetic acid on the synthesis of the total lipids of the skin.
The study is carried out by measuring the incorporation of acetate labelled with carbon-14 in models of reconstructed human epidermis sold by the company Skinethic, the total lipids composition of which is close to that of normal human epidermis.
The reconstructed human epidermis is cultured according to the supplier's recommendations.
β-Naphthoxyacetic acid, at concentrations of 10^−5, 10^−6, and 10^−7 M, is placed in contact for 72 hours with reconstructed human epidermides, after culturing the latter for 14 days under the conditions recommended by the supplier. The labelling with ^14C-acetate (sodium [2-^14C]-acetate sold by Amersham, 59 mci/mmol) is carried out 24 hours after placing the test product in contact with the culture, i.e. during the final 48 hours of culturing, at a rate of 0.5 μCi of ^14C-acetate per culture.
At the end of culturing, after washing the epidermides with phosphate buffer (PBS), the epidermides are dissociated and the cells are lysed with 0.5 M perchloric acid from ice. The lysates then undergo an extraction with a methanol/chloroform mixture (2:1), a centrifugation and a re-extraction of the pellets obtained, under the same conditions as above. The lipids are separated by addition of PBS and chloroform (Blight-Byer technique). The organic phase containing the lipids is taken and the radioactivity incorporated into this phase is determined by liquid scintillation. The organic phase is then dried under a flow of nitrogen. A thin layer chromatography on plates on plates (Merck K60) using, as eluent, a chloroform/methanol/water mixture (50:18:2.6) to separate the phospholipids, or a hexane/ether/acetic acid mixture (15:5.6:0.19) to separate the neutral lipids.
The plates are then autoradiographed for 24 hours and the chromatograms are analysed by densitometry using the One-D-Scan software from the company Scanalytics.
The results are evaluated relative to a control consisting of cells which have not been treated with β-naphthoxyacetic acid.
A positive control (10^−4 M trifluoperazine), which is known to stimulate lipid synthesis, and an negative control (10^−6 M retinoic acid) are introduced into the test by way of reference.

| Compound | percentage of stimulation (incorporation of 14C-acetate, total lipid synthesis) (10^−6 M, 72 hours contact) | percentage of stimulation (incorporation of 14C-acetate, total lipid synthesis) (10^−4 M, positive control) | percentage of stimulation (incorporation of 14C-acetate, total lipid synthesis) (10^−5 M, 72 hours contact) | effect on incorporation of acetate / lipid synthesis (in words) (10^−5 to 10^−7 M, reconstructed human epidermis) | percentage of stimulation (incorporation of 14C-acetate, total lipid synthesis) (10^−7 M, 72 hours contact) |
| --- | --- | --- | --- | --- | --- |
| CC1=C(/C=C/C(C)=C/C=C/C(C)=C/C(=O)O)C(C)(C)CCC1 [Retinoic acid, retinoic acid, reference compound] | 82% |  |  |  |  |
| CN1CCN(CCCN2c3ccccc3Sc3ccc(C(F)(F)F)cc32)CC1 [Trifluoroperazine, trifluoperazine, reference compound] |  | 122% |  |  |  |
| O=C(O)COc1ccc2ccccc2c1 [β-Naphthoxyacetic acid] | 113% |  | 110% | significantly stimulates the incorporation of acetate | 116% |
